Test system: PPP (coagulation cascade)
Assay: PT, aPTT and TT studies on PPP (coagulation analyzer)
Assay type: biochemical
Conditions: rat PPP incubated 2 min with sample
Procedure: To confirm the role of third agent (Ca) (130) in the hemostatic composition, PT, a PTT and TT studies were performed using ST art 4, Diagnostica Stago, France. PPP was separated from anti-coagulated rat whole blood by centrifugation. PPP was incubated with the developed hemostatic composition for 2 min. For PT study, PPP from incubated sample was added to PT reagent in a cuvette placed in test area of coagulation analyzer and the time taken for PPP to clot was noted as PT. For a PTT study, PPP from incubated sample was further incubated with a PTT reagent after with cuvette was placed in test area and STA®-CaCl2 0.025M solution was added. Time taken for PPP to clot was noted as a PTT. For TT study, PPP from incubated sample was added to TT reagent in a cuvette placed in test area and the time taken for PPP to clot was noted as TT.

[Ca+2].[Cl-].[Cl-] [third agent, calcium chloride]
shorter: PT | TT | aPTT
